Laboratory results: patent publication US11649238B2, “Substituted pyrazolo[1,5-a]pyrimidines as PI4K inhibitors” (GLAXOSMITHKLINE INTELLECTUAL PROPERTY DEVELOPMENT LIMITED, priority 2018, dated 2023)

These compounds were tested on human rhinovirus Type A Strain 16 (HRVA16) in HeLa Ohio cells (assay: Cytopathic Effect (CPE) Assay, ATP-depletion in infected HeLa Ohio cells). Details: Human rhinovirus sp., HRVA16, HeLa, 48 h, HRVA16 at MOI of 1, 33° C. for 2 days, CellTiter-Glo, read-out: mean pIC50 (converted).
Assay type: cell-based
Description: c) Cytopathic Effect (CPE) Assay Protocol
The in vitro inhibition of PI4 KB activity was determined by analysis of the inhibition of ATP-depletion in HeLa Ohio cells in response to infection with human rhinovirus Type A Strain 16 (HRVA16). ATP levels were determined using CellTiter-GLO reagent from Promega. Compounds that inhibit PI4 KB are also potent inhibitors of human rhinoviruses and are able to protect HeLa Ohio cells from CPE induced by viral infection and replication. Protected cells remain viable following viral infection and therefore have greater ATP levels.
Compounds were dissolved in 100% DMSO to a concentration of 3 mM and subsequent dilutions were prepared in 100% DMSO using a 1:3 serial step dilution. A 0.5 μL stamp from an 10-point titration was transferred to a white 96 well Greiner tissue culture flat bottom plate (655083). A 0.5 μL stamp of 100% DMSO was stamped into columns 11 and 12 of the plate, ensuring a final assay DMSO concentration of 0.33% across the plate and a compound top final assay concentration of 10 μM.
HeLa Ohio cells were cultured at 37° C., 5% CO2 in media (DMEM supplemented with 10% Australian origin foetal bovine serum and 2 mM glutamax). Cells were passaged when confluency reached >80%. For the assay, cells were grown to 80-90% confluency before detachment.
Cells were detached for the assay by washing with PBS and detached using 3 mL TrypLE Express for […] at 37° C. Detached cells were mixed with 7 mL of media and centrifuged at 300 g for 5 min. The cell pellet was resuspended in 50 mL media and counted on a Beckman Coulter ViCell. Cells were diluted to 6.6×10^4 cells/mL and some of the cell volume was removed into a new tube to be used as a column 12 control. HRVA16 stock was added to the remaining cell suspension at the appropriate dilution for the virus stock to achieve an MOI of 1.
150 μL of the cell+virus suspension was added per well to columns 1-11 using a Multidrop Combi. 150 μL of the separate cell suspension was added per well to columns 12 using a multichannel pipette. Assay plates were sealed and incubated at 33° C., 5% CO2 for 2 days. After 2 days, assay plates were removed from the incubator and allowed to equilibrate to room temperature. 60 μL of CellTiter-Glo reagent was added to all wells using a Thermo Scientific Multidrop Combi. Plates were incubated at room temperature for 20 min before reading on an a Perkin Elmer Envision (Settings: Gripper height 2.5, Fixed measurement height (mm) 6.5, Distance between plate and detector 0, Measurement time (s) 0.1, Glow (ct2) correction factor (0%)).
The inhibitory effect of the compounds on the PI4 KB activity was evaluated by the IC50 of the response relative to the high (no virus, column 12) and low (virus+no inhibitor, column 11) controls by fitting to a four parameter dose response equation.

Compound	IC50
Cc1ccc(-c2c(C)nn3c(NCc4cccc(-c5nccn5C)c4)cc(C(C)O)nc23)cc1C(=O)N(C)CCCO (stereo not shown) [Compound 13]	≤ 25.1 nM
COc1ccc(-c2c(C)nn3c(NCc4cccc(-c5nccn5C)c4)cc(C(C)(C)O)nc23)cc1C(=O)N1CCOC[C@@H]1C [Compound 30]	≤ 25.1 nM

The compounds below were run against T1, human PI4KIII-beta 13-828 (D316-330) (Homo sapiens, UniProt Q9UBF8) (assay: PI4 KB Activity Assay (ADP-GLO Kinase assay)). Details: 1 mM ATP, 60 μM phosphatidylinositol, 3 hours at room temperature; read-out: mean pIC50 (converted).
T1 construct: human PI4KIII-beta 13-828 (D316-330)
T1 sequence (Q9UBF8 1-801 isoform Q9UBF8-2): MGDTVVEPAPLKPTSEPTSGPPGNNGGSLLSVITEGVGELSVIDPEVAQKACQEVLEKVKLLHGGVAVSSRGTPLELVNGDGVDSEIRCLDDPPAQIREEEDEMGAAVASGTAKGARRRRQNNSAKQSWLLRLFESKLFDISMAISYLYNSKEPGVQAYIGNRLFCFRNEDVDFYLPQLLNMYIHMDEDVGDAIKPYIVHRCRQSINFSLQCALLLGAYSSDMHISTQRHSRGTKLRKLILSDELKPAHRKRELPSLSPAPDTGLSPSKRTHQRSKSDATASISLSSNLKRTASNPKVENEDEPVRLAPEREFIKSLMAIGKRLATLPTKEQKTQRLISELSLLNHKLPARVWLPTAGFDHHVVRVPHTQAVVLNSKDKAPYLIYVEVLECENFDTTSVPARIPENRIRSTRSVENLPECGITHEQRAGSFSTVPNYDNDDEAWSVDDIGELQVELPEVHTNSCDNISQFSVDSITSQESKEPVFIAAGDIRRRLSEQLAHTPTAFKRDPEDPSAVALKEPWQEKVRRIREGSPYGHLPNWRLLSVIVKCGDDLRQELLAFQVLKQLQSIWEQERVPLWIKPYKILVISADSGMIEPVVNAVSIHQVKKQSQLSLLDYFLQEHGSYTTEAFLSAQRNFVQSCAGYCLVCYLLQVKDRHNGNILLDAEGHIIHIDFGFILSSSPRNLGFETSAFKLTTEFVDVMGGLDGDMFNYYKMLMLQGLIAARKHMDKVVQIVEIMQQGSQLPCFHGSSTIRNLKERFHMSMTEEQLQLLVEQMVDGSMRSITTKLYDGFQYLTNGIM
Assay type: biochemical
Description: The in vitro inhibition of human PI4KIII-beta 13-828 (D316-330) activity was determined by using the ADP-GLO Kinase assay kit from Promega. Inhibitors were dissolved in 100% DMSO at a concentration of 1 mM. Dilutions were prepared in 100% DMSO using a 1 in 3 serial step dilution. A 60 nL stamp from an 11-point titration was transferred to a white low volume 384 well Greiner assay plate ensuring a final DMSO concentration of 1% across the plate and a top final concentration of inhibitor of 10 μM. The PI4KIII-beta assay contained 25 mM Hepes pH 7.5 (NaOH), 10 mM MgCl2, 0.5 mM EGTA, 0.1% Triton X-100, 2 mM TCEP, and 0.1 mg/ml BSA, 1 mM ATP, 60 μM phosphatidylinositol, and 1.5 nM human PI4K-beta 13-828 (D316-330) in a total volume of 6 μL. The assay was initiated with the addition of enzyme, covered, and incubated at room temperature for 3 hours. The assays were stopped with the addition of 6 μl ADP-GLO Reagent containing 0.1% CHAPS to deplete the unconsumed ATP. The plates were incubated at room temperature for 60 min and then 12 μl of the Kinase Detection Reagent containing 0.1% CHAPS was added to convert ADP to ATP and introduce luciferase and luciferin. After 40 min incubation at room temperature the luminescent signal was read on a BMG Labtech PHERAstar FS with the following settings; Gain 3600, Focal height 13.7 mm, measurement interval time 1 s, Settling time 0.2 s. The inhibitory effect of the PI4K-beta activity of the compounds was evaluated by the IC50 of the response relative to the high, no compound, and low, no enzyme, controls by fitting to the four parameter dose response question.

Compound	IC50
COc1ccc(-c2c(C)nn3c(NCc4cccc(-c5nccn5C)c4)cc(C(C)(C)O)nc23)cc1S(=O)(=O)CCO [Compound 6, 2-(3-(3-((2-Hydroxyethyl)sulfonyl)-4-methoxyphenyl)-2-methyl-7-((3-(1-methyl-1H-imidazol-2-yl)benzyl)amino)pyrazolo[1,5-a]pyrimidin-5-yl)propan-2-ol]	≤ 3.98 nM
Cc1ccc(-c2c(C)nn3c(NCc4cccc(-c5nccn5C)c4)cc(C(C)(C)CO)nc23)cc1C(=O)N(C)CCCO [Compound 55, 5-(5-(1-Hydroxy-2-methylpropan-2-yl)-2-methyl-7-((3-(1-methyl-1H-imidazol-2-yl)benzyl)amino)pyrazolo[1,5-a]pyrimidin-3-yl)-N-(3-hydroxypropyl)-N,2-dimethylbenzamide]	≤ 3.98 nM
CCN(CCO)C(=O)c1cc(-c2c(C)nn3c(NCc4cccc(-c5nccn5C)c4)cc(C(C)O)nc23)ccc1Cl (stereo not shown) [Compound 15, 2-chloro-N-ethyl-N-(2-hydroxyethyl)-5-(5-(1-hydroxyethyl)-2-methyl-7-((3-(1-methyl-1H-imidazol-2-yl)benzyl)amino)pyrazolo[1,5-a]pyrimidin-3-yl)benzamide]	≤ 3.98 nM
CCC(CO)c1cc(NCc2cccc(-c3nccn3C)c2)n2nc(C)c(-c3ccc(OC)c(S(=O)(=O)CCO)c3)c2n1 (stereo not shown) [Compound 86, 2-(3-(3-((2-Hydroxyethyl)sulfonyl)-4-methoxyphenyl)-2-methyl-7-((3-(1-methyl-1H-imidazol-2-yl)benzyl)amino)pyrazolo[1,5-a]pyrimidin-5-yl)butan-1-ol]	≤ 3.98 nM
Cc1ccc(-c2c(C)nn3c(NCc4cccc(-c5nccn5C)c4)cc(C(C)(C)O)nc23)cc1C(=O)N(C)C(C)CO (stereo not shown) [Compound 40]	≤ 3.98 nM
CCC(O)c1cc(NCc2cccc(-c3nccn3C)c2)n2nc(C)c(-c3ccc(C)c(C(=O)N(C)[C@@H](C)CO)c3)c2n1 (single isomer, unassigned) [Compound 80]	≤ 3.98 nM
COc1ccc(-c2c(C)nn3c(NCc4cccc(-c5nccn5C)c4)cc(C4CCOCC4)nc23)cc1S(=O)(=O)CCO [Compound 64, 2-((2-Methoxy-5-(2-methyl-7-((3-(1-methyl-1H-imidazol-2-yl)benzyl)amino)-5-(tetrahydro-2H-pyran-4-yl)pyrazolo[1,5-a]pyrimidin-3-yl)phenyl)sulfonyl)ethan-1-ol]	≤ 3.98 nM
Cc1ccc(-c2c(C)nn3c(NCc4cccc(-c5nccn5C)c4)cc(C(C)(C)O)nc23)cc1C(=O)N(C)C1CCOCC1 [Compound 45]	≤ 3.98 nM
Cc1ccc(-c2c(C)nn3c(NCc4cccc(-c5nccn5C)c4)cc(C(C)(C)O)nc23)cc1C(=O)N(C)[C@H](C)CO [Compound 39]	≤ 3.98 nM
COc1ccc(-c2c(C)nn3c(NCc4cccc(-c5nccn5C)c4)cc(C(C)CO)nc23)cc1S(=O)(=O)CCO (stereo not shown) [Compound 53, 2-(3-(3-((2-Hydroxyethyl)sulfonyl)-4-methoxyphenyl)-2-methyl-7-((3-(1-methyl-1H-imidazol-2-yl)benzyl)amino)pyrazolo[1,5-a]pyrimidin-5-yl)propan-1-ol]	≤ 3.98 nM

Next, values leading:

IC50	Compound
≤ 3.98 nM	CCC(O)c1cc(NCc2cccc(-c3nccn3C)c2)n2nc(C)c(-c3ccc(OC)c(S(=O)(=O)CCO)c3)c2n1 (single isomer, unassigned) [Compound 75, 1-(3-(3-((2-Hydroxyethyl)sulfonyl)-4-methoxyphenyl)-2-methyl-7-((3-(1-methyl-1H-imidazol-2-yl)benzyl)amino)pyrazolo[1,5-a]pyrimidin-5-yl)propan-1-ol]
≤ 3.98 nM	Cc1nn2c(NCc3cccc(-c4nccn4C)c3)cc(C(C)(C)O)nc2c1-c1ccc(Cl)c(C(=O)N2CCC[C@@H]2CO)c1 [Compound 24]
≤ 3.98 nM	Cc1ccc(-c2c(C)nn3c(NCc4cccc(-c5nccn5C)c4)cc(C(C)(C)O)nc23)cc1C(=O)N(C)C1CCOC1 (stereo not shown) [Compound 59, 5-(5-(2-Hydroxypropan-2-yl)-2-methyl-7-((3-(1-methyl-1H-imidazol-2-yl)benzyl)amino)pyrazolo[1,5-a]pyrimidin-3-yl)-N,2-dimethyl-N-(tetrahydrofuran-3-yl)benzamide]
≤ 3.98 nM	Cc1ccc(-c2c(C)nn3c(NCc4cccc(-c5nccn5C)c4)cc(C(C)(C)O)nc23)cc1C(=O)N(C)CC(C)O (single isomer, unassigned) [Compound 62, 5-(5-(2-Hydroxypropan-2-yl)-2-methyl-7-((3-(1-methyl-1H-imidazol-2-yl)benzyl)amino)pyrazolo[1,5-a]pyrimidin-3-yl)-N-(2-hydroxypropyl)-N,2-dimethylbenzamide]
≤ 3.98 nM	Cc1ccc(-c2c(C)nn3c(NCc4cccc(-n5cccn5)c4)cc(C(C)(C)O)nc23)cc1C(=O)N(C)CCCO [Compound 34]
≤ 3.98 nM	COc1ccc(-c2c(C)nn3c(NCc4cccc(-n5cccn5)c4)cc(C(C)(C)O)nc23)cc1C(=O)N1CCC[C@@H]1CO [Compound 49]
≤ 3.98 nM	Cc1ccc(-c2c(C)nn3c(NCc4cccc(-n5cccn5)c4)cc(C(C)(C)O)nc23)cc1C(=O)N(C)CCO [Compound 47]
≤ 3.98 nM	COc1ccc(-c2c(C)nn3c(NCc4cccc(-c5nccn5C)c4)cc(C(C)(C)O)nc23)cc1C(=O)N(C)CC(C)O (stereo not shown) [Compound 82, 5-(5-(2-Hydroxypropan-2-yl)-2-methyl-7-((3-(1-methyl-1H-imidazol-2-yl)benzyl)amino)pyrazolo[1,5-a]pyrimidin-3-yl)-N-(2-hydroxypropyl)-2-methoxy-N-methylbenzamide]
≤ 3.98 nM	Cc1nn2c(NCc3cccc(-c4nccn4C)c3)cc(C(C)(C)O)nc2c1-c1ccc(Cl)c(C(=O)N(C)CCO)c1 [Compound 37, 2-Chloro-N-(2-hydroxyethyl)-5-(5-(2-hydroxypropan-2-yl)-2-methyl-7-((3-(1-methyl-1H-imidazol-2-yl)benzyl)amino)pyrazolo[1,5-a]pyrimidin-3-yl)-N-methylbenzamide]
≤ 3.98 nM	Cc1nn2c(NCc3cccc(-c4nccn4C)c3)cc(C(C)O)nc2c1-c1ccc(Cl)c(C(=O)N(C)CCCO)c1 (single isomer, unassigned) [Compound 57, 2-Chloro-5-(5-(1-hydroxyethyl)-2-methyl-7-((3-(1-methyl-1H-imidazol-2-yl)benzyl)amino)pyrazolo[1,5-a]pyrimidin-3-yl)-N-(3-hydroxypropyl)-N-methylbenzamide]
